Legend:
c-MET enzyme = target: T1, c-MET enzyme (Homo sapiens, UniProt P08581); assay: Binding activity of c-MET enzyme assay (LanthaScreen Eu Kinase Binding Assay); conditions: cMET 5 nM, Tracer 236 30 nM, 60 mins at 4° C.
T1 construct: His (6xHis); purchased invitrogen PV3143
Protocol: Assay 1: Binding Activity of c-MET Enzyme Assay
(§1) Reagents and Consumables:
Eu-Anti-His AB (MAb Anti 6HIS-K)
The binding of tracer agent and antibody and kinase leaded to high FRET standard, while using kinase inhibitor instead of tracer agent would lead to loss of FRET.
1) The antibody Eu-Anti-His AB, enzyme cMET, tracer agent Tracer236 were diluted.
Double duplicate wells were set and each of them 75 nL.

MHCC97H cells = assay: Inhibitory effect assay on proliferation (CellTiter-Glo); format: cell-based; conditions: Homo sapiens, 72 h, MHCC97-H, 3 days incubation, read-out: MHCC97H cell IC50
Source text: Assay 2: Inhibitory Effect Assay on Proliferation
as §1
1) Cell culture: DMEM cell medium, fetal bovine serum, DPBS
3) Detection reagent: live cell detection kit CellTiter-Glo
4) Other major consumables and reagents: compound dilution plate, intermediate plate, test plate, DMSO
The amount of ATP directly reflects the number of cells and the state of the cells, thus the number of living cells could be directly detected by quantitatively measuring ATP. The live cell assay kit contains luciferase and its substrate. With the presence of ATP, a stable optical signal would be emitted by the luciferase catalyzed substrate. Thus the amount of ATP in the cell could be determined by detecting the intensity of the signal. The light signal was proportional to the amount of ATP in the cell, while the ATP was positively correlated with the number of living cells, so that the proliferation in the cell could be detected. The assay plate used was analyzed by Envision from PE Corporation.
1. Preparation of the Cell Plates
MHCC97-H cells were seeded separately into 384-well plates, each of the well contains 500 cells. The cell plates were placed and incubated in a carbon dioxide incubator overnight.
2. Preparation of the compound.
Echo was used for 4-time dilution and 9 concentration was prepared, ready for double duplicate wells assay.
3. Compound Treatment of Cells
The compounds were transferred to cell plates at a starting concentration of 10 μM. The cell plates were incubated in a carbon dioxide incubator for 3 days.
The […] reagent was added into the cell plates and the plate was incubated at room temperature for 10 mins to stabilize the luminescence signal. PerkinElmer Envision multi-label analyzer was used for readings.

[1] = tested on: human liver cancer MHCC97H cell xenograft; assay: Pharmacodynamics assay of MHCC97H liver cancer cell subcutaneous xenograft tumor model; format: in vivo, BALB/c nude mice; conditions: for Tumor volume (24th day): 24th day after administration, average ± SEM; for T/C / TGI: based on 24th day tumor volume
Protocol: Assay 3: Pharmacodynamics Assay of MHCC97H Liver Cancer Cell Subcutaneous Xanograft Tumor Model
MHCC97H cells were cultured in a single layer in-vitro. The culturing condition was RPMI1640 medium supplemented with 10% heat-inactivated fetal bovine serum, 1% penicillin-streptomycin double antibody under 37° C., 5% carbon dioxide. Digestion and passage treatment with trypsin-EDTA was done twice a week. When the cells are in the exponential growing phase, the cells were collected, counted and inoculated.
BALB/c nude mice, male. 6-8 weeks old, weighting 18-22 g.
0.2 mL of a cell suspension containing 5×10^6 MHCC97H was subcutaneously inoculated into the right back of each mouse. Drugs were administrated by group after the average tumor volume reached approximately 172 mm^3.
Aim of the assay: investigation of whether the tumor growth was inhibited, delayed or cured. The diameters of the tumor was measured twice a week using vernier calipers. The formula for calculating the tumor volume is V=0.5a×b2, and a and b represent the long and short diameters of the tumor respectively. The antitumor effect (TGI) of the compounds was evaluated by T-C (days) and T/C (%).

[2] = t1/2 of liver particle metabolism, mice; format: in vitro ADME; conditions: mouse, liver particle (liver microsomes)
[3] = t1/2 of liver particle metabolism, rat; format: in vitro ADME; conditions: liver particle (liver microsomes)
[4] = t1/2 of liver particle metabolism, human; format: in vitro ADME; conditions: liver particle (liver microsomes)
MHCC97H cell = conditions: read-out: MHCC97H cell IC50; prior art section; cited from earlier work
[5] = in words, prior art section; cited from earlier work

T1 sequence (P08581 956-1390 limits assumed): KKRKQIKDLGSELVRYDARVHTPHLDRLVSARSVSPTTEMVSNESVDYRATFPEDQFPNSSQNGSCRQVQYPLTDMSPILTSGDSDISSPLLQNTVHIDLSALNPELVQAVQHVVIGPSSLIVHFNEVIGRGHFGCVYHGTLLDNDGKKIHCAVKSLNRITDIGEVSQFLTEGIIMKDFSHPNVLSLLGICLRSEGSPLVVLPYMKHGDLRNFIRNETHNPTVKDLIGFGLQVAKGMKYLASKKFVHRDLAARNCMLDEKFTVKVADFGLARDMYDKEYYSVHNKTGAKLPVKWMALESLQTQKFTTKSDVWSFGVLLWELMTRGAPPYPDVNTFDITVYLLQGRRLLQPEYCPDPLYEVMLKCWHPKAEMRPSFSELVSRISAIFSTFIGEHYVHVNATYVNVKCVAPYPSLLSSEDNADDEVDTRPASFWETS

IC50 (c-MET enzyme)	SMILES	IC50 (MHCC97H cells)	further results
0.005 µM	Cc1cc(-c2ccc(=O)n(Cc3cccc(-c4ncc(OCC5CCN(C)CC5)cn4)c3)c2)sn1 [Embodiment 11]	0.0938 µM	
	CC(c1cccc(-c2ncc(OCC3CCN(C)CC3)cn2)c1)n1cc(-c2cc(C#N)ccn2)cc(F)c1=O (single isomer, unassigned) [Embodiment 1-2]		Tumor volume (24th day) [1]: 153 ± 12 mm^3; T/C [1]: 7.4%; TGI [1]: 101.0%; half-life [2]: 49.1 min; half-life [3]: 36.5 min; half-life [4]: 62.1 min
	Cc1cc(-c2ccc(=O)n([C@H](C)c3cccc(-c4ncc(OCC5CCN(C)CC5)cn4)c3)c2)sn1 [Embodiment 3-2]	0.019 µM	
0.0029 µM	Cc1cc(-c2cc(F)c(=O)n(Cc3cccc(-c4ncc(OCC5CCN(C)CC5)cn4)c3)c2)sn1 [Embodiment 5]	0.0588 µM	
	CN1CCC(COc2cnc(-c3cccc(Cn4nc(-c5cccc(C#N)c5)ccc4=O)c3)nc2)CC1 [Tepotinib, reference compound]		Tumor volume (24th day) [1]: 255 ± 5 mm^3; T/C [1]: 12.4%; TGI [1]: 95.6%; IC50 (MHCC97H cell): 0.0062 µM; clearance rate in vivo [5]: high clearance rate in vivo; metabolic stability [5]: low metabolic stability
	Cc1cc(-c2ccc(=O)n(Cc3cccc(-c4ncc(OCC5CCN(C)CC5)cn4)c3)c2)on1 [Embodiment 12]	0.0514 µM	
0.0155 µM	CN1CCC(COc2cnc(-c3cccc(Cn4cc(-c5cc(C#N)ccn5)cc(F)c4=O)c3)nc2)CC1 [Embodiment 7]	0.0223 µM	
0.0695 µM	CN1CCC(COc2cnc(-c3cccc(Cn4cc(-c5cnn(C)c5)ccc4=O)c3)nc2)CC1 [Embodiment 10]	0.166 µM	
0.00616 µM	CN1CCC(COc2cnc(-c3cccc(Cn4cc(-c5cc(C#N)ccc5F)ccc4=O)c3)nc2)CC1 [Embodiment 4]	0.0729 µM	
0.00933 µM	Cc1cc(-c2cc(F)c(=O)n(C(C)c3cccc(-c4ncc(OCC5CCN(C)CC5)cn4)c3)c2)sn1 (centres unmarked) [Embodiment 2-2]	0.0138 µM	
0.00437 µM	CN1CCC(COc2cnc(-c3cccc(Cn4cc(-c5cc(C#N)ccn5)ccc4=O)c3)nc2)CC1 [Embodiment 6]	0.0329 µM	
0.00379 µM	Cc1cc(-c2cc(F)c(=O)n([C@H](C)c3cccc(-c4ncc(OCC5CCN(C)CC5)cn4)c3)c2)on1 (single isomer, unassigned) [Embodiment 8-2]		Tumor volume (24th day) [1]: 161 ± 6 mm^3; T/C [1]: 7.8%; TGI [1]: 100.6%

Source: patent publication US10501443B2, “Pyridone compound as c-met inhibitor” (FUJIAN COSUNTER PHARMACEUTICAL CO., LTD., priority 2016, dated 2019)
